Columns and labels:
[1] = In vitro intrinsic clearance in human liver microsomes (HLM); assay type: in vitro ADME; settings: pH 7.4, 1 μM substrate, NADPH, 37° C., read-out: HLM CLint, app
Description: Test Compounds (Example 1-3 and Comparative-Compounds 1-4) were prepared as solutions in DMSO. The final concentration of DMSO in the incubation was <0.1% (v/v). […] (all final concentrations) in a 384-well plate. The reaction mixture was pre-warmed at 37° C. for 10 min prior to initiation of the incubation. The incubation was quenched with acetonitrile containing internal standards at the following time points: 1, 4, 7, 12, 20, 25, 45, and 60 min (individual incubation plates per time point) with a subsequent addition of water. The samples were vortexed followed by centrifugation and the supernatant was analyzed by LC/MS-MS using multiple reaction monitoring. For control experiments, NADPH was omitted from the incubations.
The microsomal t½ (min) was obtained from a log-linear plot of the substrate depletion versus incubation time and was scaled to hepatic intrinsic clearance (CLint,app (μL/min/mg protein) using the following equation: […]

[2] = In vitro intrinsic clearance in human hepatocytes; assay type: in vitro ADME; settings: 1 μM substrate, human hepatocytes 0.5 million viable cells per mL, 37° C.
Description: Test Compounds (Example 1-3 and Comparative-Compounds 1-4) were prepared as solutions in DMSO at 3 mM which were then diluted in media containing WEM. The final concentration of DMSO in the incubation was 0.03% (v/v). The in vitro half-life (t½) of each compound was determined in incubations containing substrate (1 μM), human hepatocytes (0.5 million viable cells per mL final concentration) in media containing WEM, 50 mM HEPES buffer (pH 7.4), and 26 mM sodium bicarbonate at 37° C. (all final concentrations) in a 96-well plate. The reaction mixture was pre-warmed at 37° C. for 30 min prior to the initiation of the incubation. The incubation was quenched with acetonitrile containing internal standards at the following time points: 0, 5, 15, 30, 60, 120, and 240 min (individual incubation plates per time point). The samples were vortexed followed by centrifugation. An aliquot of supernatant was transferred to a clean 96-well plate and analyzed by LC/MS-MS using multiple reaction monitoring. For control experiments, hepatocytes were omitted from the incubations.
The hepatocyte t½ (min) was obtained from a log-linear plot of the substrate depletion versus incubation time and was scaled to hepatic intrinsic clearance (CLint,app (μL/min/million cells) using the following equation: […]

[3] = Mouse subcutaneous neuropharmacokinetics study; assay type: in vivo, Male C57Bl6 mice; settings: male, C57Bl6, mouse, brain (cerebellum homogenate) and plasma, sc, subcutaneous dose of 1 mg/kg, read-out: Mouse Cb,u/Cp,u
Description: The neuropharmacokinetics studies in mouse were conducted at Wuxi (Shanghai, China) with bioanalysis conducted at BioDuro (Beijing, China) with the exception of the Comparative-compound 3, which bioanalysis was conducted at Wuxi. All in vivo studies were conducted in accordance with regulations and established guidelines using protocols reviewed and approved by the Pfizer Worldwide Research and Development (WRD, or other) Institutional Animal Care and Use Committee.
Male C57Bl6 mice were maintained on a 12-h light/dark cycle in a temperature- and humidity-controlled environment with free access to food and water. The test compounds (Examples 1 and 2 and Comparative Compounds 1-3) were administered as a subcutaneous dose of 1 mg/kg which was delivered in a dose volume of 10 mL/kg. The dose solution for all compounds was formulated in 5% DMSO/5% cremophor/90% saline. Blood and brain samples were collected at 0.5, 1, 2, 4, 8, 12, and 24 h post-dose (n=3 per time point). Blood samples were collected into tubes containing sodium fluoride and 4-(2-aminoethyl)benzenesulfonyl fluoride hydrochloride (AEBSF; final concentration 2 mg/mL) to inhibit hydrolase activity and placed on wet ice. Following centrifugation to afford plasma, the samples were transferred to polypropylene tubes and stored frozen at −20° C. to −80° C. until analysis. Immediately following blood collection the mice were euthanized by cervical dislocation and the brains were removed. The cerebellum was immediately frozen in liquid nitrogen and stored at −80° C. until analysis.
Cerebellum samples were thawed, diluted 1:4 (w/v) with water, and homogenized using an H-speed dispersator. Standards and controls were prepared in a similar manner using a brain homogenate prepared from untreated animals. The plasma standard curves were generated with species specific plasma. All plasma and brain homogenate samples were quantified via LC/MS-MS using multiple reaction monitoring with non-validated methods.
Equilibrium dialysis using standard procedures [See Di et al., “Species independence in brain tissue binding using brain homogenates”; Drug Metab Dispos 39:1270-1277, 2011) were used for determination of the unbound fraction of the test compounds (Examples 1 and 2 and Comparative Compounds 1-3) in mouse plasma (fu,p; see Di et al., “impact of recovery on fraction unbound using equilibrium dialysis”; J Pharm Sci 101:1327-1335, 2012) and unbound fraction in rat brain homogenate (fu,b; see Di et al., “Species independence in brain tissue binding using brain homogenates”; Drug Metab Dispos 39:1270-1277, 2011). The determination of the unbound fraction in plasma also included the addition of AEBSF at a final concentration of 2 mg/mL to the incubation.
The pharmacokinetic parameters were computed by non-compartmental analysis using Watson Bioanalytical LIMS version 7.5. The AUC values were calculated using the linear trapezoidal method for both brain and plasma. Measured total plasma (Cp) and brain (Cb; assuming brain tissue density of 1 g/mL) concentrations were converted to unbound (free) values using the matrix specific binding factor (fu, p or fu,b) to determine free plasma (Cp,u) and free brain (Cb,u) values. All neurocompartmental ratios (Cb,u/Cp,u) were calculated through use of AUC values with the exception of Comparative Compounds 1 and 2 which used the mean of individual animal values due to insufficient data to calculate an AUC value.

[4] = Dog intravenous pharmacokinetic study; assay type: in vivo, Male beagle dogs; settings: male, beagle, IV dose of 1 mg/kg, plasma, read-out: Dog t1/2 (converted)
Description: The pharmacokinetic studies in dog were conducted at Pfizer Global Research and Development (Groton, Conn.). All in vivo studies were conducted in accordance with regulations and established guidelines using protocols reviewed and approved by the Pfizer Worldwide Research and Development (WRD, or other) Institutional Animal Care and Use Committee.
Male beagle dogs were fasted overnight with water provided ad libitium. The dogs were fed at approximately 2-4 h post-dose. The dogs (n=2) were administered an IV bolus via the cephalic vein. Compounds of Examples 1-3 were tested along with the following four comparative compounds.
All test compounds were administered an IV dose of 1 mg/kg of the specified compound which was delivered in a dose volume of 0.5 mL/kg. The dose solution was formulated in 10% PEG400/90% of 23% (w/v) HPBCD in de-ionized water for the following test compounds: Example 1, Example 2, and Example 3; in 20% SBECD (sulfobutyl either β-cyclodextrin) for Comparative-Compound 3; in 23% (w/v) HPBCD (hydroxypropyl β-cyclodextrin) in water for Comparative Compound 2; in 12.5.% SBECD in water with 0.25% 0.1N HCl to pH 5 for Comparative Compound 1. Serial blood samples were collected from each dog via the jugular vein prior to dose administration and at the following time points post-dose: 0.083, 0.25, 0.5, 1, 2, 4, 7, and 24 h for all compounds with an additional time point of 0.016 h collected for Comparative Compound 1 only. Blood samples were collected into tubes containing EDTA and placed on wet ice. Following centrifugation to afford plasma, the samples were transferred to polypropylene tubes and stored frozen at −20° C. to −80° C. until analysis.
All plasma samples were quantified via liquid chromatography/tandem mass spectrometry (LC/MS-MS) using multiple reaction monitoring with non-validated methods. The plasma standard curves were generated with species specific plasma. Pharmacokinetic parameters were determined by non-compartmental analysis using Watson LIMS software version 7.4 (Thermo Fisher Scientific, Waltham, Mass.). The area under the concentration versus time curve (AUC) was calculated from the first time point to the last time point with measurable drug concentration using a linear trapezoidal rule. The area under the concentration versus time curve from the first time point to time infinity (AUC(0-inf)) was calculated by extrapolation from the time point where the last measurable concentration occurred to time infinity by dividing the observed concentration at the last time point by the elimination rate constant determined using linear regression of plasma concentration versus time data. The plasma clearance (CLp) was calculated by the equation CLp=dose/AUC(0-inf). The elimination half-life (t½) was calculated using the following equation t1/2=ln 2/k; k is equal to the rate constant of elimination calculated by the least squares of the log transformed data.

For CN([C@H]1COC2(CCN(C(=O)O[C@H](CO)C(F)(F)F)CC2)C1)S(=O)(=O)c1ccccc1 [Comparative-Compound 3, (2R)-1,1,1-trifluoro-3-hydroxypropan-2-yl (3R)-3-[methyl(phenylsulfonyl)-amino]-1-oxa-8-azaspiro[4.5]decane-8-carboxylate], the microsomal CLint at 1 μM [1] was 14.8 µL/min/mg, the “HHEPs CLint, app” value [2] was 10.6 μL/min/million and the Kp,uu (unbound brain/unbound plasma ratio) [3] was 0.51. The half-life [4] was 300 min.
For CN([C@H]1COC2(CCN(C(=O)O[C@H](CO)C(F)(F)F)CC2)C1)S(=O)(=O)C1CC1 [Comparative-Compound 2, (2R)-1,1,1-trifluoro-3-hydroxypropan-2-yl (3R)-3-[(cyclopropylsulfonyl)-(methyl)amino]-1-oxa-8-azaspiro[4.5]decane-8-carboxylate], the microsomal CLint at 1 μM [1] was less than 8 µL/min/mg, the “HHEPs CLint, app” value [2] was less than 3.52 μL/min/million and the Kp,uu (unbound brain/unbound plasma ratio) [3] was 0.29. For the same molecule, the half-life [4] was 78.6 min.
For CN([C@H]1COC2(CCN(C(=O)O[C@H](CO)C(F)(F)F)CC2)C1)S(=O)(=O)CC1CC1 [Comparative-Compound 1, (2R)-1,1,1-trifluoro-3-hydroxypropan-2-yl (3R)-3-{[(cyclopropylmethyl)sulfonyl](methyl)amino}-1-oxa-8-azaspiro[4.5]decane-8-carboxylate], the microsomal CLint at 1 μM [1] was less than 12.5 µL/min/mg, the “HHEPs CLint, app” value [2] was 5.5 μL/min/million and the Kp,uu (unbound brain/unbound plasma ratio) [3] was 0.18. The half-life [4] was 30 min.
